Measurements as given in article PMC2229623 (The Journal of General Physiology, 2004).

Key:
CFTR [1] = biological target: T1, CFTR (Homo sapiens, UniProt P13569); assay: Apical Cl− current in CFTR-expressing FRT cells; format: cell-based; details: for % inhibition at 50 μM: apical membrane Cl− current, FRT cells; for Ki: Ki is compound concentration giving 50% inhibition of apical membrane Cl− current in CFTR-expressing FRT cells
CFTR [2] = biological target: T1, CFTR; details: read-out: concentration giving 50% inhibition of CFTR Cl− channel function; intact cells, depending on cell type and membrane potential; ref Ma et al., 2002a; Taddei et al., 2004; cited from earlier work
CFTR [3] = format: in vivo; details: 100 μM in all solutions; mice
MDR-1 = MDR-1 (Homo sapiens, UniProt P08183); assay: Rhodamine 123 uptake in cells overexpressing MDR-1; format: cell-based; details: 100 μM
Chain of MDR-1 (P08183 whole entry): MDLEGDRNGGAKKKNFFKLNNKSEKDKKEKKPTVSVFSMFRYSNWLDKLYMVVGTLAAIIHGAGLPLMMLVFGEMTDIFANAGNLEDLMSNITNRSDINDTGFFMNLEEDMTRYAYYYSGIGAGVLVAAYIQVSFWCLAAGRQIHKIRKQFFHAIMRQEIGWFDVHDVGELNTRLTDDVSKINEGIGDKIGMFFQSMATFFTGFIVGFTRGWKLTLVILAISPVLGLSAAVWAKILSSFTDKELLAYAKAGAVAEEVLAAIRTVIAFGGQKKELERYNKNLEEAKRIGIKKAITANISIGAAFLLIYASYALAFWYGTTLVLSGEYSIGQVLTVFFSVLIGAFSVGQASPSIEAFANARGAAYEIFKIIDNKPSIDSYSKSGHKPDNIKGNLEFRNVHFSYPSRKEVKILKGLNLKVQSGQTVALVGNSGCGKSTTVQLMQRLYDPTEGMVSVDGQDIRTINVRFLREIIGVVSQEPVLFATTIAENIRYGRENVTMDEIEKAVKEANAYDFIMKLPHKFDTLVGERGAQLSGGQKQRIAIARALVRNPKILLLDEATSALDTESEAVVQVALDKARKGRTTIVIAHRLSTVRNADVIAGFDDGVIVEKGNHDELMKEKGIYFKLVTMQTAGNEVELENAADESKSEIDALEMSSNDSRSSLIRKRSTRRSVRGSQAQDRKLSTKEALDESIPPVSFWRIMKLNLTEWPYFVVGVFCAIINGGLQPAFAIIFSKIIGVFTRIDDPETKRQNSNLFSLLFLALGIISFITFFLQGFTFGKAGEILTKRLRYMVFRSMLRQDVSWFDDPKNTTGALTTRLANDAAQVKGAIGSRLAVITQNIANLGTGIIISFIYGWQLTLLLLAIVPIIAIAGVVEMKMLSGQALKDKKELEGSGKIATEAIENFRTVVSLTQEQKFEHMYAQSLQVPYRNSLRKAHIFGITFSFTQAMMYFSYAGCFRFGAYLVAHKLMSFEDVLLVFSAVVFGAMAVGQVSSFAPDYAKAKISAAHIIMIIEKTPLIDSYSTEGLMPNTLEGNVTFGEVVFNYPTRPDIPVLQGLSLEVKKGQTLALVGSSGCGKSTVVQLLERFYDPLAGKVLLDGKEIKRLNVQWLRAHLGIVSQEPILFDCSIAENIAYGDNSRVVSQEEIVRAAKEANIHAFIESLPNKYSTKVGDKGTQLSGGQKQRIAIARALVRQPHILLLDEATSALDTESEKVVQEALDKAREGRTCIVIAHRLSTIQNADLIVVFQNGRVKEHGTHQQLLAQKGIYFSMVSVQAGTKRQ

T1 sequence (P13569 whole entry): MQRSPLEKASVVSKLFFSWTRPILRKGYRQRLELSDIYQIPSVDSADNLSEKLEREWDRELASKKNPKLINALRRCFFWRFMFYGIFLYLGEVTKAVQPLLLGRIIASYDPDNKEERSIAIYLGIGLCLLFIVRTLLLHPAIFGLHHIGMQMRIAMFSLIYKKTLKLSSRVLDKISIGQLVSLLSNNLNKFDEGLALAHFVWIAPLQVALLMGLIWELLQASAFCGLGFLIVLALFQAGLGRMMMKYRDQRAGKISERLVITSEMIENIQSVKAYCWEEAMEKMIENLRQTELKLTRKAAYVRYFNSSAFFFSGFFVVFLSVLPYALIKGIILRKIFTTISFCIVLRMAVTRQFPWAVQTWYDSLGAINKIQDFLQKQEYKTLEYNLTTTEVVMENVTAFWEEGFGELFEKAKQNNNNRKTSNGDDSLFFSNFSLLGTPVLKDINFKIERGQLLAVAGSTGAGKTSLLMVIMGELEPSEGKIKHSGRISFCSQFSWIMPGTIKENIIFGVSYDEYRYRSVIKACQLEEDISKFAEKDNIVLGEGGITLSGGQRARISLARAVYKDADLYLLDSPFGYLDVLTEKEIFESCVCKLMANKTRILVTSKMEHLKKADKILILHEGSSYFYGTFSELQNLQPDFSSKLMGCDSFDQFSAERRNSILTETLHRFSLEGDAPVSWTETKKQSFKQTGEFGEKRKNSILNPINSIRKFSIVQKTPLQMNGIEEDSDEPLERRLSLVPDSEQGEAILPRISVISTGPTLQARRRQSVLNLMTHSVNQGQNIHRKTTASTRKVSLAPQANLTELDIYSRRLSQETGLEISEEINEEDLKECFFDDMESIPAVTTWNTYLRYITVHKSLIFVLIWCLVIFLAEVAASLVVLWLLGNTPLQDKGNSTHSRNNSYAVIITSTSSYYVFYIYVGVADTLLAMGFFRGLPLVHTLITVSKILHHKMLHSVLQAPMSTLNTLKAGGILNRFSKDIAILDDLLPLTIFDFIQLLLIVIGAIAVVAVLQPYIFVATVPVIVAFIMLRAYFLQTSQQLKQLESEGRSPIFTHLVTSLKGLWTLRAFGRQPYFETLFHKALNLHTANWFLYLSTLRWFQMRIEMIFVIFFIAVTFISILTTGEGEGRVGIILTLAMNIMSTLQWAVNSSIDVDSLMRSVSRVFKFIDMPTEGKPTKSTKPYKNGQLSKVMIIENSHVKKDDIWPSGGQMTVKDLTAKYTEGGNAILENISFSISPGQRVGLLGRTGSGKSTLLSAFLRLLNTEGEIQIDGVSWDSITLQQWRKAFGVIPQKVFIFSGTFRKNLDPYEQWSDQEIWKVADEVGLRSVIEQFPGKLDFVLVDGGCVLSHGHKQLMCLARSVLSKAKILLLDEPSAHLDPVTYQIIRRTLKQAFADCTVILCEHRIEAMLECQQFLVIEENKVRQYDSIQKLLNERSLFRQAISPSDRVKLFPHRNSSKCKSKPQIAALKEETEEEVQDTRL

Row | Ki (CFTR [1]) | SMILES | other results
1 | 21 µM | O=C(COc1ccc2ccccc2c1)NN=Cc1cc(Br)c(O)c(Br)c1O [AceH-401] | % inhibition at 50 μM (CFTR [1]): 84%
2 | 17 µM | O=C(COc1ccc2ccccc2c1)NN=Cc1cc(Br)c(O)c(Br)c1 [AceH-402] | % inhibition at 50 μM (CFTR [1]): 86%
3 | – | O=C(O)c1ccc(/C=C2\SC(=S)N(c3cccc(C(F)(F)F)c3)C2=O)cc1 [CFTRinh-172] | IC50 (CFTR [2]): 300 to 3000 nM
4 | – | O=S(=O)(O)c1cc(N=C=S)ccc1C=Cc1ccc(N=C=S)cc1S(=O)(=O)O [DIDS] | inhibition of the (CFTR-independent) hyperpolarization produced by low Cl− (CFTR [3]): partial inhibition
5 | 20 µM | COc1c(Br)cc(C=NNC(=O)CNc2ccc3ccccc3c2)c(O)c1Br [GlyH-103] | % inhibition at 50 μM (CFTR [1]): 56%
6 | 4.7 µM | CC(=NNC(=O)CNc1ccc2ccccc2c1)c1cc(Br)c(O)c(Br)c1 [GlyH-109] | –
7 | 5 µM | O=C(CNc1ccc(Cl)cc1)NN=Cc1cc(Br)c(O)c(Br)c1 [GlyH-114] | –
8 | 6.7 µM | O=C(CNc1ccc(Cl)cc1)NN=Cc1cc(Br)c(O)c(Br)c1O [GlyH-115] | –
9 | 10 µM | Cc1ccc(NCC(=O)NN=Cc2cc(Br)c(O)c(Br)c2O)cc1 [GlyH-116] | –
10 | 25 to 50 µM | Cc1ccccc1NCC(=O)NN=Cc1cc(Br)c(O)c(Br)c1O [GlyH-117] | –
11 | 25 to 50 µM | O=C(CNc1cccc2ccccc12)NN=Cc1ccc(O)c(Br)c1 [GlyH-118] | –
12 | 25 to 50 µM | O=C(CNc1ccc2ccccc2c1)NN=Cc1ccc(Br)cc1 [GlyH-120] | –
13 | 25 to 50 µM | O=C(CNc1ccc(Cl)cc1)NN=Cc1ccc(O)cc1O [GlyH-123] | –
14 | 25 to 50 µM | O=C(CNc1ccc2cc3ccccc3cc2c1)NN=Cc1cc(Br)c(O)c(Br)c1O [GlyH-124] | –
15 | 25 to 50 µM | O=C(CNc1ccc2cc3ccccc3cc2c1)NN=Cc1cc(Br)c(O)c(Br)c1 [GlyH-125] | –
16 | 3 µM | CC(=NNC(=O)C(=O)Nc1ccc2ccccc2c1)c1cc(Br)c(O)c(Br)c1O [OxaH-112] | –
17 | > 50 µM | O=C(NN=Cc1cc(Br)c(O)c(Br)c1O)C(=O)Nc1ccc2ccccc2c1 [OxaH-203] | –
18 | > 50 µM | O=C(NNC(=O)c1cc(Br)c(O)c(Br)c1)C(=O)Nc1ccc2ccccc2c1 [OxaH-204] | –
19 | 10 µM | O=C(NNCc1cc(Br)c(O)c(Br)c1O)C(=O)Nc1ccc2ccccc2c1 [OxaH-303] | % inhibition at 50 μM (CFTR [1]): 70%
20 | 12 µM | O=C(NNCc1cc(Br)c(O)c(Br)c1)C(=O)Nc1ccc2ccccc2c1 [OxaH-304] | % inhibition at 50 μM (CFTR [1]): 78%
21 | – | COc1ccc(CCN(C)CCCC(C#N)(c2ccc(OC)c(OC)c2)C(C)C)cc1OC (stereo not shown) [verapamil] | increase of rhodamine 123 incorporation (MDR-1): greater than fivefold

Row | SMILES | Ki (CFTR [1]) | other results
22 | O=C(CNc1ccc2ccccc2c1)NNC(=O)c1cc(Br)c(O)c(Br)c1 [GlyH-202, 3,5-Dibromo-4-hydroxy-[2-(2-naphthalenamine)aceto] Benzoic Acid Hydrazide] | 22 µM | % inhibition at 50 μM (CFTR [1]): 57%
